This note sets out measurements from patent publication US7820648B2, “Pyrimidine derivatives for the treatment of abnormal cell growth” (Pfizer Inc, priority 2005, dated 2010).

The term melting point denotes the temperature of the solid-liquid transition. Regarding `CC(=O)N1[C@@H]2CC[C@H]1c1ccc(Nc3ncc(C)c(NC4CC4)n3)cc12`, the melting point was 108 to 112 °C.
